The source of these data is ChEMBL document CHEMBL3745592, “Synthesis of novel coumarin appended bis(formylpyrazole) derivatives: Studies on their antimicrobial and antioxidant activities” (Bioorg Med Chem Lett, 2016).

For orientation: MIC90 means an inhibitory concentration at the 90% level, which refers to growth in some studies and to a panel of isolates in others.

One data set has as its system Aspergillus niger. As to the kind of experiment: Antifungal activity against Aspergillus niger assessed as growth inhibition incubated for 72 hrs at 37 degC by broth dilution method. Type of data set: functional. On the technique in general: In broth dilution the organism is exposed to a series of concentrations in liquid medium.
For another data set, the system named is Escherichia coli. The data set is described as follows: Antibacterial activity against Escherichia coli assessed as growth inhibition incubated for 24 hrs at 37 degC by broth dilution method. Type of data set: functional.
The nature of data set [1]: Antioxidant activity assessed as DPPH free radical scavenging activity at 100 ug/ml after 20 mins by UV-vis spectrophotometry analysis. Type of data set: physicochemical. (In general: The DPPH test is a chemical assay of radical scavenging.)
Another data set concerns Aspergillus flavus. The data set is described as follows: Antifungal activity against Aspergillus flavus assessed as growth inhibition incubated for 72 hrs at 37 degC by broth dilution method. In kind it is functional.
Data set [2] is described as follows: Antioxidant activity assessed as DPPH free radical scavenging activity at 25 ug/ml after 20 mins by UV-vis spectrophotometry analysis. In kind it is physicochemical.
Data set [3] can be described thus: Antioxidant activity assessed as DPPH free radical scavenging activity at 50 ug/ml after 20 mins by UV-vis spectrophotometry analysis. In kind it is physicochemical.
Data set [4] can be described thus: Antioxidant activity assessed as hydroxyl radical scavenging activity at 75 ug/ml after 60 mins. In kind it is physicochemical. The following applies: 1 h.
A further data set relates to Staphylococcus aureus. The data set is described as follows: Antibacterial activity against Staphylococcus aureus assessed as growth inhibition incubated for 24 hrs at 37 degC by broth dilution method. Type of data set: functional.
A short description of data set [5]: Antioxidant activity assessed as hydroxyl radical scavenging activity at 100 ug/ml after 60 mins. The following applies: 1 h. In kind it is physicochemical.
The next data set relates to Pseudomonas aeruginosa. As to the kind of experiment: Antibacterial activity against Pseudomonas aeruginosa assessed as growth inhibition incubated for 24 hrs at 37 degC by broth dilution method. In kind it is functional.
A further data set deals with Candida albicans. The data set is described as follows: Antifungal activity against Candida albicans assessed as growth inhibition incubated for 72 hrs at 37 degC by broth dilution method. Type of data set: functional.
The nature of data set [6]: Antioxidant activity assessed as DPPH free radical scavenging activity at 75 ug/ml after 20 mins by UV-vis spectrophotometry analysis. In kind it is physicochemical.

Converted amounts (≈) assume the structure as drawn.

Turning to `C/C(=N\Nc1cccc(C)c1)c1cc2c(C)cc(=O)oc2c(/C(C)=N/Nc2cccc(C)c2)c1O`, the MIC90 with Aspergillus niger was found to be 75 µg/mL (≈ 160 µM); in the data set with Escherichia coli, 50 µg/mL (≈ 107 µM); with Aspergillus flavus it was 50 µg/mL (≈ 107 µM); in the data set with Staphylococcus aureus, 50 µg/mL (≈ 107 µM); with Pseudomonas aeruginosa, 25 µg/mL (≈ 53.4 µM); in the data set with Candida albicans it was 50 µg/mL (≈ 107 µM). For the same compound, the “inhibition (INH)” value in [1] stood at 17.29%; in data set [2], 10.92%; in data set [3], 11.8%; in data set [4], 24.22%; in data set [5] it was 30.78%; in data set [6], 13.97%.
As to `COc1ccc(N/N=C(\C)c2cc3c(C)cc(=O)oc3c(/C(C)=N/Nc3ccc(OC)cc3)c2O)cc1`, the MIC90 with Aspergillus niger amounted to 12.5 µg/mL (≈ 25 µM); in the data set with Escherichia coli it was 12.5 µg/mL (≈ 25 µM); with Aspergillus flavus, 25 µg/mL (≈ 49.9 µM); in the data set with Staphylococcus aureus, 25 µg/mL (≈ 49.9 µM); in the data set with Pseudomonas aeruginosa, 12.5 µg/mL (≈ 25 µM); in the data set with Candida albicans, 50 µg/mL (≈ 99.9 µM). Also, the “inhibition (INH)” value in data set [1] is 22.4%; in data set [2] it was 14.57%; in data set [3], 17.17%; in [4], 26.36%; in data set [5] it was 33.01%; in [6] it was 19.7%.
For `COc1ccc(O)c(C(C)(C)C)c1.COc1ccc(O)cc1C(C)(C)C` [BUTYLATED HYDROXYANISOLE], the “inhibition (INH)” value came out at 25.58% in data set [4] and 32.03% in data set [5].
As for `C/C(=N\Nc1ccccc1)c1cc2c(C)cc(=O)oc2c(/C(C)=N/Nc2ccccc2)c1O`, the MIC90 with Aspergillus niger was found to be 50 µg/mL (≈ 114 µM); in the data set on Escherichia coli, 25 µg/mL (≈ 56.8 µM); with Aspergillus flavus, 50 µg/mL (≈ 114 µM); with Staphylococcus aureus, 50 µg/mL (≈ 114 µM); in the data set on Pseudomonas aeruginosa, 25 µg/mL (≈ 56.8 µM); with Candida albicans it was 50 µg/mL (≈ 114 µM). The “inhibition (INH)” value in [1] is on record as 22.22%; in [2] it was 15.03%; in data set [3] it was 16.96%; in data set [4], 24.36%; in [5] it was 29.65%; in [6] it was 19.35%.
For `OC(Cn1cncn1)(Cn1cncn1)c1ccc(F)cc1F` [FLUCONAZOLE], the MIC90 in the data set with Aspergillus niger was determined as 25 µg/mL (≈ 81.6 µM); in the data set with Aspergillus flavus it was 25 µg/mL (≈ 81.6 µM); with Candida albicans, 50 µg/mL (≈ 163 µM).
Consider `Cc1ccc(-n2cc(C=O)c(-c3cc4c(C)cc(=O)oc4c(-c4nn(-c5ccc(C)cc5)cc4C=O)c3O)n2)cc1`, for which the MIC90 amounted to 50 µg/mL (≈ 91.8 µM) in the data set on Aspergillus niger; 50 µg/mL (≈ 91.8 µM) in the data set with Escherichia coli; 75 µg/mL (≈ 138 µM) in the data set with Aspergillus flavus; 75 µg/mL (≈ 138 µM) in the data set on Staphylococcus aureus; 25 µg/mL (≈ 45.9 µM) in the data set on Pseudomonas aeruginosa; 50 µg/mL (≈ 91.8 µM) in the data set with Candida albicans. Besides, the “inhibition (INH)” value in data set [1] amounted to 24.56%; in data set [2] it was 16%; in data set [3] it was 17.28%; in [4], 27.07%; in data set [5], 31.48%; in data set [6], 20.75%.
For the compound `Cc1cccc(-n2cc(C=O)c(-c3cc4c(C)cc(=O)oc4c(-c4nn(-c5cccc(C)c5)cc4C=O)c3O)n2)c1`, the MIC90 worked out at 75 µg/mL (≈ 138 µM) with Aspergillus niger; 50 µg/mL (≈ 91.8 µM) with Escherichia coli; 75 µg/mL (≈ 138 µM) with Aspergillus flavus; 75 µg/mL (≈ 138 µM) in the data set with Staphylococcus aureus; 25 µg/mL (≈ 45.9 µM) in the data set on Pseudomonas aeruginosa; 50 µg/mL (≈ 91.8 µM) with Candida albicans. Moreover, the “inhibition (INH)” value is listed as 24.02% in data set [1]; 13.24% in data set [2]; 16.4% in data set [3]; 26.49% in data set [4]; 30.1% in data set [5]; 18.78% in [6].
Regarding `C/C(=N\Nc1ccc(Cl)cc1)c1cc2c(C)cc(=O)oc2c(/C(C)=N/Nc2ccc(Cl)cc2)c1O`, the MIC90 is 25 µg/mL (≈ 49.1 µM) in the data set with Aspergillus niger; 50 µg/mL (≈ 98.2 µM) in the data set on Escherichia coli; 50 µg/mL (≈ 98.2 µM) in the data set on Aspergillus flavus; 50 µg/mL (≈ 98.2 µM) in the data set on Staphylococcus aureus; 25 µg/mL (≈ 49.1 µM) in the data set on Pseudomonas aeruginosa; 50 µg/mL (≈ 98.2 µM) with Candida albicans. The “inhibition (INH)” value in data set [1] was found to be 20.62%; in data set [2] it was 10.73%; in data set [3], 14.75%; in data set [4], 23.49%; in [5], 30.75%; in [6] it was 17.41%.
Take `Cc1cc(=O)oc2c(-c3nn(-c4ccccc4)cc3C=O)c(O)c(-c3nn(-c4ccccc4)cc3C=O)cc12`: the MIC90 with Aspergillus niger was 50 µg/mL (≈ 96.8 µM); in the data set on Escherichia coli, 50 µg/mL (≈ 96.8 µM); in the data set with Aspergillus flavus it was 75 µg/mL (≈ 145 µM); with Staphylococcus aureus it was 50 µg/mL (≈ 96.8 µM); with Pseudomonas aeruginosa, 50 µg/mL (≈ 96.8 µM); with Candida albicans it was 50 µg/mL (≈ 96.8 µM). The “inhibition (INH)” value in data set [1] is on record as 23.6%; in [2], 15.1%; in data set [3], 17.34%; in [4] it was 25.9%; in [5], 30.04%; in [6], 20.08%.
In the case of `Cc1cc(=O)oc2c(-c3nn(-c4ccc(Cl)cc4)cc3C=O)c(O)c(-c3nn(-c4ccc(Cl)cc4)cc3C=O)cc12`, the MIC90 in the data set on Aspergillus niger stood at 50 µg/mL (≈ 85.4 µM); with Escherichia coli, 25 µg/mL (≈ 42.7 µM); in the data set with Aspergillus flavus it was 50 µg/mL (≈ 85.4 µM); in the data set with Staphylococcus aureus, 50 µg/mL (≈ 85.4 µM); in the data set with Pseudomonas aeruginosa, 25 µg/mL (≈ 42.7 µM); with Candida albicans it was 100 µg/mL (≈ 171 µM). The “inhibition (INH)” value was determined as 23.61% in [1]; 15.58% in data set [2]; 17.55% in data set [3]; 24.77% in [4]; 32.07% in [5]; 20.63% in data set [6].
Regarding `C/C(=N\Nc1ccc(C)cc1)c1cc2c(C)cc(=O)oc2c(/C(C)=N/Nc2ccc(C)cc2)c1O`, the MIC90 in the data set with Aspergillus niger is 50 µg/mL (≈ 107 µM); with Escherichia coli, 25 µg/mL (≈ 53.4 µM); in the data set on Aspergillus flavus, 25 µg/mL (≈ 53.4 µM); in the data set with Staphylococcus aureus, 25 µg/mL (≈ 53.4 µM); in the data set with Pseudomonas aeruginosa, 25 µg/mL (≈ 53.4 µM); in the data set with Candida albicans, 50 µg/mL (≈ 107 µM). Further, the “inhibition (INH)” value came to 22.45% in [1]; 14.29% in data set [2]; 16.65% in data set [3]; 25.54% in [4]; 30.52% in data set [5]; 19.43% in data set [6].
For the compound `Cc1cc(=O)oc2c(-c3nn(-c4ccc(F)cc4)cc3C=O)c(O)c(-c3nn(-c4ccc(F)cc4)cc3C=O)cc12`, the MIC90 with Aspergillus niger came to 75 µg/mL (≈ 136 µM); in the data set on Escherichia coli, 75 µg/mL (≈ 136 µM); with Aspergillus flavus, 75 µg/mL (≈ 136 µM); with Staphylococcus aureus, 75 µg/mL (≈ 136 µM); in the data set on Pseudomonas aeruginosa, 50 µg/mL (≈ 90.5 µM); in the data set with Candida albicans, 100 µg/mL (≈ 181 µM). Further, the “inhibition (INH)” value turned out to be 19.44% in data set [1]; 11.62% in [2]; 14.93% in [3]; 21.27% in data set [4]; 29.47% in [5]; 17.69% in data set [6].
Consider `COc1ccc(-n2cc(C=O)c(-c3cc4c(C)cc(=O)oc4c(-c4nn(-c5ccc(OC)cc5)cc4C=O)c3O)n2)cc1`, for which the MIC90 was determined as 25 µg/mL (≈ 43.4 µM) with Aspergillus niger; 50 µg/mL (≈ 86.7 µM) in the data set with Escherichia coli; 50 µg/mL (≈ 86.7 µM) in the data set on Aspergillus flavus; 50 µg/mL (≈ 86.7 µM) with Staphylococcus aureus; 12.5 µg/mL (≈ 21.7 µM) in the data set with Pseudomonas aeruginosa; 50 µg/mL (≈ 86.7 µM) with Candida albicans. The “inhibition (INH)” value in data set [1] amounted to 24.59%; in data set [2], 14.2%; in data set [3], 17.87%; in [4] it was 29.4%; in data set [5] it was 35.13%; in [6], 21.14%.
In the case of `O=C(O)c1cn(C2CC2)c2cc(N3CCNCC3)c(F)cc2c1=O` [CIPROFLOXACIN], the MIC90 came out at 25 µg/mL (≈ 75.4 µM) in the data set on Escherichia coli, 25 µg/mL (≈ 75.4 µM) in the data set with Staphylococcus aureus and 12.5 µg/mL (≈ 37.7 µM) with Pseudomonas aeruginosa.
In the case of `O=C1O[C@H]([C@@H](O)CO)C(O)=C1O` [ASCORBIC ACID], the “inhibition (INH)” value in [1] is 24.25%; in [2], 15.08%; in data set [3], 16.87%; in data set [6], 21.98%.
Take `C/C(=N\Nc1ccc(F)cc1)c1cc2c(C)cc(=O)oc2c(/C(C)=N/Nc2ccc(F)cc2)c1O`: the MIC90 in the data set on Aspergillus niger came out at 50 µg/mL (≈ 105 µM); in the data set with Escherichia coli, 50 µg/mL (≈ 105 µM); with Aspergillus flavus it was 75 µg/mL (≈ 157 µM); in the data set on Staphylococcus aureus, 75 µg/mL (≈ 157 µM); with Pseudomonas aeruginosa, 50 µg/mL (≈ 105 µM); in the data set with Candida albicans, 75 µg/mL (≈ 157 µM). Moreover, the “inhibition (INH)” value came out at 17.45% in [1]; 8.49% in data set [2]; 11.69% in data set [3]; 17.33% in [4]; 26.6% in [5]; 14.01% in data set [6].
